# Key:
# Assay in all cases: relative viability (nuclei count vs DMSO), 5 days (fraction); higher = more cells survive
# [1] = compound: C1CNCCC1C2=CC(=NN2)C3=CC=NC=C3 + CS(=O)(=O)N1CCN(Cc2cc3nc(-c4cccc5[nH]ncc45)nc(N4CCOCC4)c3s2)CC1 [Pictilisib] (partner 1 µM)
# In short: (§1)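 For relative viability, nuclei counts in treated wells were divided by those in vehicle wells. Lung cancer cell lines had been pin-tool dosed in 1536-well plates the day after seeding and cultured for 5 days, then fixed and stained in one step (final 0.05% Triton X-100, 1% formaldehyde, 1 ug/ml Hoechst) and imaged at 4×. Doses were one drug alone or a fixed anchor-drug dose plus five library-drug doses (not always all listed) in √10 steps, and values are duplicate-plate medians.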
# [2] = compound: C1CNCCC1C2=CC(=NN2)C3=CC=NC=C3 + Nc1ncn([C@H]2C[C@H](O)[C@@H](CO)O2)c(=O)n1 [Decitabine] (partner 2 µM)
# In short: as §1
# [3] = compound: C[C@@H](N)c1ccc(C(=O)Nc2ccnc3[nH]ccc23)cc1 + CS(=O)(=O)N1CCN(Cc2cc3nc(-c4cccc5[nH]ncc45)nc(N4CCOCC4)c3s2)CC1 [Pictilisib] (partner 1 µM)
# In short: as §1
# Tanzisertib + Pictilisib = compound: O[C@H]1CC[C@H](Nc2ncc3nc(Nc4c(F)cc(F)cc4F)n([C@H]4CCOC4)c3n2)CC1 [Tanzisertib] + CS(=O)(=O)N1CCN(Cc2cc3nc(-c4cccc5[nH]ncc45)nc(N4CCOCC4)c3s2)CC1 [Pictilisib] (partner 1 µM)
# In short: as §1
Cell Line,relative viability ([1]; first compound 0.08 µM),relative viability ([1]; first compound 0.8 µM),relative viability ([1]; first compound 2.53 µM),relative viability ([1]; first compound 8 µM),relative viability ([2]; first compound 0.08 µM),relative viability ([2]; first compound 0.8 µM),relative viability ([2]; first compound 2.53 µM),relative viability ([2]; first compound 8 µM),relative viability ([3]; first compound 0.04 µM),relative viability ([3]; first compound 0.1265 µM),relative viability ([3]; first compound 0.4 µM),relative viability ([3]; first compound 1.265 µM),relative viability ([3]; first compound 4 µM),relative viability (Tanzisertib + Pictilisib; first compound 0.08 µM),relative viability (Tanzisertib + Pictilisib; first compound 0.253 µM),relative viability (Tanzisertib + Pictilisib; first compound 0.8 µM),relative viability (Tanzisertib + Pictilisib; first compound 2.53 µM),relative viability (Tanzisertib + Pictilisib; first compound 8 µM)
NCI-H661,0.516,0.422,0.522,0.445,0.549,0.57,0.541,0.541,0.433,0.54,0.454,0.351,0.509,0.464,0.389,0.365,0.447,0.35
NCI-H1734,0.427,0.451,0.469,0.452,0.452,0.524,0.488,0.497,0.475,0.474,0.461,,0.353,0.534,0.405,0.45,0.454,0.382
NCI-H1650,0.353,0.701,0.632,0.63,0.216,0.49,0.399,0.509,0.672,0.584,0.595,0.318,0.586,0.656,0.538,0.666,0.586,0.438
NCI-H596,0.407,0.425,0.392,0.407,1.03,1.25,0.922,1.21,0.435,0.44,0.408,0.416,0.319,0.408,0.407,0.42,0.394,0.451
NCI-H1944,0.377,0.341,0.334,0.341,0.426,0.431,0.414,0.415,0.398,0.339,0.337,,0.345,0.364,0.344,0.351,0.331,0.336
LK-2,0.452,0.746,0.572,0.623,,0.237,0.404,0.358,0.79,0.537,0.739,,0.822,0.515,0.578,0.477,0.463,0.435
HCC-15,0.738,0.772,0.722,0.75,0.652,0.793,0.587,0.621,0.821,0.705,0.796,,0.731,0.836,0.651,0.786,0.698,0.494
NCI-H727,0.373,0.407,0.505,0.575,0.872,0.865,0.871,0.952,0.63,0.466,0.785,0.223,0.683,0.356,0.463,0.363,0.333,0.307
HOP-62,0.654,0.816,0.791,0.717,0.226,0.234,0.205,0.201,0.539,0.413,0.827,0.0717,0.887,0.851,0.874,0.856,0.871,0.341
NCI-H3122,0.59,0.549,0.694,0.587,0.421,0.453,0.417,0.521,0.72,0.721,0.716,0.687,0.728,0.655,0.591,0.587,0.572,0.743
NCI-H1395,0.837,0.535,0.677,0.785,0.705,0.714,0.751,0.755,0.566,0.626,0.655,,0.627,0.592,0.735,0.568,0.589,0.533
NCI-H647,0.388,,0.427,0.381,0.296,0.378,0.338,0.392,0.301,0.394,0.451,,0.42,0.456,0.537,0.474,0.436,0.141
NCI-H650,0.897,0.992,0.939,0.904,0.284,0.322,0.341,0.303,0.81,0.753,0.704,,0.708,0.843,0.825,0.858,0.957,0.963
EKVX,0.42,0.516,0.42,0.447,0.291,,0.318,0.323,0.582,0.489,0.532,0.467,0.443,0.425,0.392,0.405,0.42,0.329
NCI-H460,0.423,0.289,0.436,0.385,0.379,0.608,0.554,0.474,0.467,0.252,0.489,0.0436,0.372,0.495,0.368,0.362,0.317,0.0876
LCLC-97TM1,0.275,0.241,0.283,0.175,0.232,0.283,0.214,0.262,0.257,0.176,0.259,0.106,0.421,,0.16,0.176,0.159,0.164
COR-L23,0.824,0.903,0.924,0.832,0.424,0.429,0.516,0.47,0.621,0.867,0.799,0.591,0.562,0.922,0.736,0.781,0.97,0.869
NCI-H1355,0.501,0.52,0.517,0.423,0.374,0.36,0.395,0.354,0.338,0.429,0.555,,0.351,0.455,0.417,0.46,0.461,0.306

Cell Line,relative viability ([1]; first compound 0.08 µM),relative viability ([1]; first compound 0.8 µM),relative viability ([1]; first compound 2.53 µM),relative viability ([1]; first compound 8 µM),relative viability ([2]; first compound 0.08 µM),relative viability ([2]; first compound 0.8 µM),relative viability ([2]; first compound 2.53 µM),relative viability ([2]; first compound 8 µM),relative viability ([3]; first compound 0.04 µM),relative viability ([3]; first compound 0.1265 µM),relative viability ([3]; first compound 0.4 µM),relative viability ([3]; first compound 1.265 µM),relative viability ([3]; first compound 4 µM),relative viability (Tanzisertib + Pictilisib; first compound 0.08 µM),relative viability (Tanzisertib + Pictilisib; first compound 0.253 µM),relative viability (Tanzisertib + Pictilisib; first compound 0.8 µM),relative viability (Tanzisertib + Pictilisib; first compound 2.53 µM),relative viability (Tanzisertib + Pictilisib; first compound 8 µM)
NCI-H1666,0.463,0.335,0.641,0.463,0.697,0.747,0.762,0.728,0.527,0.407,0.498,0.476,0.728,0.494,0.588,0.414,0.546,0.439
EPLC-272H,0.384,0.361,0.285,0.337,0.372,0.385,0.389,0.365,0.387,0.34,0.339,,0.297,0.396,0.328,0.397,0.337,0.199
ChaGo-K-1,0.51,0.978,0.431,0.681,0.496,0.525,0.506,0.529,0.777,0.937,0.988,,0.696,0.657,0.819,0.845,0.627,0.482
NCI-H1651,0.637,0.711,0.601,0.664,0.586,0.566,0.686,0.501,0.663,0.646,0.684,0.808,0.799,0.562,0.579,0.581,0.6,0.583
HCC-44,0.585,0.648,0.716,0.593,0.957,0.989,0.961,0.942,0.789,0.508,0.656,0.571,0.482,0.638,0.701,0.565,0.442,0.569
SW 1573,0.516,0.533,0.496,0.509,,0.471,0.711,0.76,0.467,0.56,0.543,0.539,0.43,0.63,0.373,0.481,0.584,0.505
PC-3 [JPC-3],0.719,0.721,0.738,0.766,0.881,0.77,0.963,0.895,0.741,0.784,0.788,0.632,0.683,0.741,0.823,0.688,0.673,0.577
LOU-NH91,0.545,0.521,0.522,0.49,0.84,0.851,0.832,0.79,0.517,0.517,0.562,0.398,0.549,0.516,0.544,0.573,0.51,0.443
PC-14,0.716,0.763,0.842,0.661,0.22,0.19,0.268,0.265,0.679,0.699,0.684,0.665,0.612,0.778,0.594,0.799,0.693,0.203
NCI-H2087,0.855,1.03,1.1,1.09,0.339,0.279,0.267,0.292,1.04,0.78,0.908,0.153,0.797,1.17,0.838,0.886,0.753,0.743
LU99A,0.321,0.366,0.316,0.307,0.857,0.982,0.919,0.842,0.307,0.319,0.385,0.297,0.324,0.322,0.303,0.319,0.358,0.321
BEN,0.518,0.587,0.555,0.722,0.676,0.652,0.779,0.777,0.537,0.454,0.611,0.617,0.44,0.577,0.555,0.612,0.561,0.48
SK-LU-1,0.515,0.499,0.686,0.644,0.571,0.646,0.674,0.638,0.589,0.621,0.549,0.608,0.544,0.58,0.539,0.565,0.633,0.527
NCI-H1975,0.325,0.305,0.331,0.307,0.369,0.355,0.399,0.363,0.281,0.281,0.287,0.228,0.236,0.297,0.266,0.304,0.295,0.309
RERF-LC-KJ,0.458,0.619,0.715,0.625,0.692,0.689,0.766,0.668,0.575,0.541,0.558,0.585,0.492,0.634,0.606,0.571,0.511,0.458
A549,0.509,0.654,0.575,0.548,0.208,0.282,0.302,0.146,0.596,0.526,0.597,0.525,0.428,0.564,0.496,0.588,0.534,0.428
NCI-H441,0.462,0.455,0.428,0.491,0.226,0.255,0.243,0.248,0.549,0.569,0.553,0.4,0.458,0.494,0.529,0.525,0.476,0.463
LCLC-103H,0.499,0.61,0.617,0.64,0.767,0.735,0.755,0.642,0.756,0.616,0.54,0.482,0.584,0.698,0.642,0.648,0.616,0.608

# Source: the supplement of paper PMC10307832
